# Laboratory results: patent USRE31731E, “Herbicidal 4-trifluoromethyl-4-nitrodiphenyl ethers” (priority 1978, dated 1984)
# Tested on: Dicots
# Test: Herbicidal activity, postemergence, dicot weeds (Table II)
# Type: in vivo
# Conditions: post-emergence, 336 h, 2 lb./A., about 2 weeks, read-out: % control (percent of plants killed)
# Protocol: (§1) Using the procedure described below, diphenyl ethers were evaluated for control of the following weeds: […]
# (§2) bindweed (Convolvulus arvensis) curly dock (Remex crispus) velvetleaf (Abutilon theophrasti) wild mustard (Brassica haber)
# (§3) At 2 and 4 pounds per acre: […]
# (§4) cocklebur (Xanthium pensylvanicum)
# (§5) **coffeeweed (Sesbania macrocarpa)
# (§6) *curly dock (Rumex crispus)
# (§7) *lambsquarters (Chenopodium album) morningglory (Ipomoea purpurea)
# (§8) *pigweed (Amaranthus retroflexus)
# (§9) **ragweed (Ambrosia artemisiifolia)
# (§10) *smartweed (Polygonum pensylvanicum)
# (§11) **tomato (Lycopersicon esculentum)
# (§12) *wild carrot (Daucus carota)
# (§13) *wild mustard (Brassica haber)
# (§14) The following test procedure is employed. Seeds of selected crops and weeds are planted in soil in flats. For preemergence tests, the flats are treated with the test compound immediately after the planting. For postemergence tests, the seeds are allowed to germinate, and after 2 weeks the flats are treated with the test compound. The compound to be evaluated is dissolved in acetone, diluted with water, and sprayed over the flats using a carrier volume equivalent to 50 gallons per acre at the rate of application (pounds per acre, lb/A.) specified in the tables. About 2 weeks after the application of the test compound, the state of growth of the plants is observed and the phytotoxic effect of the compound is evaluated. Table II gives the average percent control achieved by the test compounds in terms of the percent of the plants which are killed by the compounds.
row,SMILES,pest or weed control at 2241.7 g/ha [%]
1,C=CCOc1cc(Oc2ccc(C(F)(F)F)cc2Cl)ccc1[N+](=O)[O-] [Example 12],100
2,"CC(Oc1cc(Oc2ccc(C(F)(F)F)cc2Cl)ccc1[N+](=O)[O-])C(N)=O (stereo not drawn) [Example 51, 2-chloro-α,α,α-trifluoro-p-tolyl-3-(1-carbamoylethoxy)-4-nitrophenyl ether]",98
3,CC(=O)C(C)Oc1cc(Oc2ccc(C(F)(F)F)cc2Cl)ccc1[N+](=O)[O-] (centres unmarked) [Example 32],100
4,O=[N+]([O-])c1ccc(Oc2ccc(C(F)(F)F)cc2Cl)cc1OCC1CO1 (centres unmarked) [Example 38],58
5,Cc1cc(Oc2ccc(C(F)(F)F)cc2C#N)ccc1[N+](=O)[O-] [Example 9],75
6,O=[N+]([O-])c1ccc(Oc2ccc(C(F)(F)F)cc2Cl)cc1NCCO [Example 22],100
7,CCCN(CCC)c1cc(Oc2ccc(C(F)(F)F)cc2Cl)ccc1[N+](=O)[O-] [Example 41],94
8,C#CCCOc1cc(Oc2ccc(C(F)(F)F)cc2Cl)ccc1[N+](=O)[O-] [Example 29],100

# Same assay, conditions: post-emergence, 336 h, 4 lb./A., about 2 weeks, read-out: % control (percent of plants killed)
row,SMILES,pest or weed control at 4483.4 g/ha [%]
1,C=CCOc1cc(Oc2ccc(C(F)(F)F)cc2Cl)ccc1[N+](=O)[O-] [Example 12],100
2,"CC(Oc1cc(Oc2ccc(C(F)(F)F)cc2Cl)ccc1[N+](=O)[O-])C(N)=O (stereo not drawn) [Example 51, 2-chloro-α,α,α-trifluoro-p-tolyl-3-(1-carbamoylethoxy)-4-nitrophenyl ether]",100
3,CC(=O)C(C)Oc1cc(Oc2ccc(C(F)(F)F)cc2Cl)ccc1[N+](=O)[O-] (centres unmarked) [Example 32],100
4,O=[N+]([O-])c1ccc(Oc2ccc(C(F)(F)F)cc2Cl)cc1OCC1CO1 (centres unmarked) [Example 38],98
5,Cc1cc(Oc2ccc(C(F)(F)F)cc2C#N)ccc1[N+](=O)[O-] [Example 9],81
6,O=[N+]([O-])c1ccc(Oc2ccc(C(F)(F)F)cc2Cl)cc1NCCO [Example 22],99
7,CCCN(CCC)c1cc(Oc2ccc(C(F)(F)F)cc2Cl)ccc1[N+](=O)[O-] [Example 41],95
8,C#CCCOc1cc(Oc2ccc(C(F)(F)F)cc2Cl)ccc1[N+](=O)[O-] [Example 29],100

# Same assay, conditions: post-emergence, 336 h, 10 lb./A., about 2 weeks, read-out: % control (percent of plants killed)
row,SMILES,pest or weed control at 11208.5 g/ha [%]
1,Cc1cc(Oc2ccc(C(F)(F)F)cc2C#N)ccc1[N+](=O)[O-] [Example 9],100

# Tested on: Dicots
# Test: Herbicidal activity, preemergence, dicot weeds (Table II)
# Type: in vivo
# Conditions: pre-emergence, 336 h, 2 lb./A., about 2 weeks, read-out: % control (percent of plants killed)
# Protocol: as §1, §2, §3, §4, §5, §6, §7, §8, §9, §10, §11, §12, §13, §14
row,SMILES,pest or weed control at 2241.7 g/ha [%]
1,C=CCOc1cc(Oc2ccc(C(F)(F)F)cc2Cl)ccc1[N+](=O)[O-] [Example 12],93
2,"CC(Oc1cc(Oc2ccc(C(F)(F)F)cc2Cl)ccc1[N+](=O)[O-])C(N)=O (stereo not drawn) [Example 51, 2-chloro-α,α,α-trifluoro-p-tolyl-3-(1-carbamoylethoxy)-4-nitrophenyl ether]",100
3,CC(=O)C(C)Oc1cc(Oc2ccc(C(F)(F)F)cc2Cl)ccc1[N+](=O)[O-] (centres unmarked) [Example 32],81
4,O=[N+]([O-])c1ccc(Oc2ccc(C(F)(F)F)cc2Cl)cc1OCC1CO1 (centres unmarked) [Example 38],68
5,Cc1cc(Oc2ccc(C(F)(F)F)cc2C#N)ccc1[N+](=O)[O-] [Example 9],67
6,O=[N+]([O-])c1ccc(Oc2ccc(C(F)(F)F)cc2Cl)cc1NCCO [Example 22],77
7,CCCN(CCC)c1cc(Oc2ccc(C(F)(F)F)cc2Cl)ccc1[N+](=O)[O-] [Example 41],62
8,C#CCCOc1cc(Oc2ccc(C(F)(F)F)cc2Cl)ccc1[N+](=O)[O-] [Example 29],84

# Same assay, conditions: pre-emergence, 336 h, 4 lb./A., about 2 weeks, read-out: % control (percent of plants killed)
row,SMILES,pest or weed control at 4483.4 g/ha [%]
1,C=CCOc1cc(Oc2ccc(C(F)(F)F)cc2Cl)ccc1[N+](=O)[O-] [Example 12],96
2,"CC(Oc1cc(Oc2ccc(C(F)(F)F)cc2Cl)ccc1[N+](=O)[O-])C(N)=O (stereo not drawn) [Example 51, 2-chloro-α,α,α-trifluoro-p-tolyl-3-(1-carbamoylethoxy)-4-nitrophenyl ether]",100
3,CC(=O)C(C)Oc1cc(Oc2ccc(C(F)(F)F)cc2Cl)ccc1[N+](=O)[O-] (centres unmarked) [Example 32],100
4,O=[N+]([O-])c1ccc(Oc2ccc(C(F)(F)F)cc2Cl)cc1OCC1CO1 (centres unmarked) [Example 38],86
5,Cc1cc(Oc2ccc(C(F)(F)F)cc2C#N)ccc1[N+](=O)[O-] [Example 9],66
6,O=[N+]([O-])c1ccc(Oc2ccc(C(F)(F)F)cc2Cl)cc1NCCO [Example 22],98
7,CCCN(CCC)c1cc(Oc2ccc(C(F)(F)F)cc2Cl)ccc1[N+](=O)[O-] [Example 41],96
8,C#CCCOc1cc(Oc2ccc(C(F)(F)F)cc2Cl)ccc1[N+](=O)[O-] [Example 29],73

# Same assay, conditions: pre-emergence, 336 h, 10 lb./A., about 2 weeks, read-out: % control (percent of plants killed)
row,SMILES,pest or weed control at 11208.5 g/ha [%]
1,Cc1cc(Oc2ccc(C(F)(F)F)cc2C#N)ccc1[N+](=O)[O-] [Example 9],92

# Tested on: Monocots
# Test: Herbicidal activity, preemergence, monocot weeds (Table II)
# Type: in vivo
# Conditions: pre-emergence, 336 h, 2 lb./A., about 2 weeks, read-out: % control (percent of plants killed)
# Protocol: as §1
# (§15) barnyardgrass (Echinochloa crusgalli) crabgrass (Digitaria spp.) nutsedge (Cyperus esculentus)
# (§16) At 2 and 4 pounds per acre:
# (§17) **Bermudagrass (Cynodon dactylon)
# (§18) *downy brome (Bromus tectorum) foxtail (Setaria faberii)
# (§19) Johnsongrass (Sorghum halepense) […]
# (§20) quackgrass (Agropyron repens)
# (§21) *ryegrass (Lolium perenne)
# (§22) *yellow millet (Panicum miliaceum)
# as §14
row,SMILES,pest or weed control at 2241.7 g/ha [%]
1,C=CCOc1cc(Oc2ccc(C(F)(F)F)cc2Cl)ccc1[N+](=O)[O-] [Example 12],72
2,"CC(Oc1cc(Oc2ccc(C(F)(F)F)cc2Cl)ccc1[N+](=O)[O-])C(N)=O (stereo not drawn) [Example 51, 2-chloro-α,α,α-trifluoro-p-tolyl-3-(1-carbamoylethoxy)-4-nitrophenyl ether]",96
3,CC(=O)C(C)Oc1cc(Oc2ccc(C(F)(F)F)cc2Cl)ccc1[N+](=O)[O-] (centres unmarked) [Example 32],81
4,O=[N+]([O-])c1ccc(Oc2ccc(C(F)(F)F)cc2Cl)cc1OCC1CO1 (centres unmarked) [Example 38],62
5,Cc1cc(Oc2ccc(C(F)(F)F)cc2C#N)ccc1[N+](=O)[O-] [Example 9],81
6,O=[N+]([O-])c1ccc(Oc2ccc(C(F)(F)F)cc2Cl)cc1NCCO [Example 22],63
7,CCCN(CCC)c1cc(Oc2ccc(C(F)(F)F)cc2Cl)ccc1[N+](=O)[O-] [Example 41],84
8,C#CCCOc1cc(Oc2ccc(C(F)(F)F)cc2Cl)ccc1[N+](=O)[O-] [Example 29],66

# Same assay, conditions: pre-emergence, 336 h, 4 lb./A., about 2 weeks, read-out: % control (percent of plants killed)
row,SMILES,pest or weed control at 4483.4 g/ha [%]
1,C=CCOc1cc(Oc2ccc(C(F)(F)F)cc2Cl)ccc1[N+](=O)[O-] [Example 12],86
2,"CC(Oc1cc(Oc2ccc(C(F)(F)F)cc2Cl)ccc1[N+](=O)[O-])C(N)=O (stereo not drawn) [Example 51, 2-chloro-α,α,α-trifluoro-p-tolyl-3-(1-carbamoylethoxy)-4-nitrophenyl ether]",79
3,CC(=O)C(C)Oc1cc(Oc2ccc(C(F)(F)F)cc2Cl)ccc1[N+](=O)[O-] (centres unmarked) [Example 32],86
4,O=[N+]([O-])c1ccc(Oc2ccc(C(F)(F)F)cc2Cl)cc1OCC1CO1 (centres unmarked) [Example 38],47
5,Cc1cc(Oc2ccc(C(F)(F)F)cc2C#N)ccc1[N+](=O)[O-] [Example 9],90
6,O=[N+]([O-])c1ccc(Oc2ccc(C(F)(F)F)cc2Cl)cc1NCCO [Example 22],72
7,CCCN(CCC)c1cc(Oc2ccc(C(F)(F)F)cc2Cl)ccc1[N+](=O)[O-] [Example 41],60
8,C#CCCOc1cc(Oc2ccc(C(F)(F)F)cc2Cl)ccc1[N+](=O)[O-] [Example 29],74

# Same assay, conditions: pre-emergence, 336 h, 10 lb./A., about 2 weeks, read-out: % control (percent of plants killed)
row,SMILES,pest or weed control at 11208.5 g/ha [%]
1,Cc1cc(Oc2ccc(C(F)(F)F)cc2C#N)ccc1[N+](=O)[O-] [Example 9],99

# Tested on: Monocots
# Test: Herbicidal activity, postemergence, monocot weeds (Table II)
# Type: in vivo
# Conditions: post-emergence, 336 h, 2 lb./A., about 2 weeks, read-out: % control (percent of plants killed)
# Protocol: as §1, §15, §16, §17, §18, §19, §20, §21, §22, §14
row,SMILES,pest or weed control at 2241.7 g/ha [%]
1,C=CCOc1cc(Oc2ccc(C(F)(F)F)cc2Cl)ccc1[N+](=O)[O-] [Example 12],99
2,"CC(Oc1cc(Oc2ccc(C(F)(F)F)cc2Cl)ccc1[N+](=O)[O-])C(N)=O (stereo not drawn) [Example 51, 2-chloro-α,α,α-trifluoro-p-tolyl-3-(1-carbamoylethoxy)-4-nitrophenyl ether]",86
3,CC(=O)C(C)Oc1cc(Oc2ccc(C(F)(F)F)cc2Cl)ccc1[N+](=O)[O-] (centres unmarked) [Example 32],100
4,O=[N+]([O-])c1ccc(Oc2ccc(C(F)(F)F)cc2Cl)cc1OCC1CO1 (centres unmarked) [Example 38],51
5,Cc1cc(Oc2ccc(C(F)(F)F)cc2C#N)ccc1[N+](=O)[O-] [Example 9],82
6,O=[N+]([O-])c1ccc(Oc2ccc(C(F)(F)F)cc2Cl)cc1NCCO [Example 22],70
7,CCCN(CCC)c1cc(Oc2ccc(C(F)(F)F)cc2Cl)ccc1[N+](=O)[O-] [Example 41],56
8,C#CCCOc1cc(Oc2ccc(C(F)(F)F)cc2Cl)ccc1[N+](=O)[O-] [Example 29],97

# Same assay, conditions: post-emergence, 336 h, 4 lb./A., about 2 weeks, read-out: % control (percent of plants killed)
row,SMILES,pest or weed control at 4483.4 g/ha [%]
1,C=CCOc1cc(Oc2ccc(C(F)(F)F)cc2Cl)ccc1[N+](=O)[O-] [Example 12],77
2,"CC(Oc1cc(Oc2ccc(C(F)(F)F)cc2Cl)ccc1[N+](=O)[O-])C(N)=O (stereo not drawn) [Example 51, 2-chloro-α,α,α-trifluoro-p-tolyl-3-(1-carbamoylethoxy)-4-nitrophenyl ether]",75
3,CC(=O)C(C)Oc1cc(Oc2ccc(C(F)(F)F)cc2Cl)ccc1[N+](=O)[O-] (centres unmarked) [Example 32],86
4,O=[N+]([O-])c1ccc(Oc2ccc(C(F)(F)F)cc2Cl)cc1OCC1CO1 (centres unmarked) [Example 38],43
5,Cc1cc(Oc2ccc(C(F)(F)F)cc2C#N)ccc1[N+](=O)[O-] [Example 9],97
6,O=[N+]([O-])c1ccc(Oc2ccc(C(F)(F)F)cc2Cl)cc1NCCO [Example 22],60
7,CCCN(CCC)c1cc(Oc2ccc(C(F)(F)F)cc2Cl)ccc1[N+](=O)[O-] [Example 41],71
8,C#CCCOc1cc(Oc2ccc(C(F)(F)F)cc2Cl)ccc1[N+](=O)[O-] [Example 29],79

# Same assay, conditions: post-emergence, 336 h, 10 lb./A., about 2 weeks, read-out: % control (percent of plants killed)
row,SMILES,pest or weed control at 11208.5 g/ha [%]
1,Cc1cc(Oc2ccc(C(F)(F)F)cc2C#N)ccc1[N+](=O)[O-] [Example 9],100
